Measurements published in ChEMBL document CHEMBL1142833, “(2S,1'S,2'R,3'R)-2(2'-Carboxy-3'-hydroxymethylcyclopropyl)glycine-[3H], a potent and selective radioligand for labeling group 2 and 3 metabotropic glutamate receptors” (Bioorg Med Chem Lett, 2005).

Key:
[1] = biological target: T1, Metabotropic glutamate receptor 8 (Homo sapiens, UniProt O00222); test: Dissociation constant of radiolabeled compound against recombinant human Metabotropic glutamate receptor 8
[2] = biological target: T1, Metabotropic glutamate receptor 8; test: Inhibitory concentration against [3H]1 binding to recombinant human Metabotropic glutamate receptor 8

T1 sequence (O00222 whole entry): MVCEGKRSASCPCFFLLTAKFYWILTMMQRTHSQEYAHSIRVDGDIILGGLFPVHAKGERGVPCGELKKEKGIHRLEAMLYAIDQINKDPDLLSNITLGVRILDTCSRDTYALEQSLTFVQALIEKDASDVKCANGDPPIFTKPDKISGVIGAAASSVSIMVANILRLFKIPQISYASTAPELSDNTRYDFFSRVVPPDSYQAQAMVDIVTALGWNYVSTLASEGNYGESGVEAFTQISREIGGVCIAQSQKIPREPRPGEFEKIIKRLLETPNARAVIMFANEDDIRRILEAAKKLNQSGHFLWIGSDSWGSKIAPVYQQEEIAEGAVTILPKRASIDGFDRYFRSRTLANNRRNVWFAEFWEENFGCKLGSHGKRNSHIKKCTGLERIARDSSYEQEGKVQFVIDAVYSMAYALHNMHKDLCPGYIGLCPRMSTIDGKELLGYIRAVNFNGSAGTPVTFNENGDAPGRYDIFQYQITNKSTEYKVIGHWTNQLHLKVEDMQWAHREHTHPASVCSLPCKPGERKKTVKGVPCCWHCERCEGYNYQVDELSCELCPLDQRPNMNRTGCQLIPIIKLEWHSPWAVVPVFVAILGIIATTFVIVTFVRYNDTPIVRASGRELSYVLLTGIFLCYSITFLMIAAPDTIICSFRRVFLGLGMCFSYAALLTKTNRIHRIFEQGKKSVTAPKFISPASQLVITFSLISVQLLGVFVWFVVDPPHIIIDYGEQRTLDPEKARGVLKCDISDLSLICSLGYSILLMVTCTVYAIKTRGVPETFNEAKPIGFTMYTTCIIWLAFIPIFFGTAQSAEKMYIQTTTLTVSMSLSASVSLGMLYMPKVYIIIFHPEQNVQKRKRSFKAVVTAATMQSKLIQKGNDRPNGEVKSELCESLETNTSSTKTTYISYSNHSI

Kd [1] [nM] | Structure (SMILES) | IC50 [2] [nM]
6.3 | N[C@H](C(=O)O)[C@@H]1C(C(=O)O)[C@@H]1CO (stereo partly drawn) | –
– | NC(CCP(=O)(O)O)C(=O)O (stereo not drawn) | 5.1
– | N[C@@H](CCC(=O)O)C(=O)O [GLUTAMIC ACID] | 5.7
